Data set [1] relates to alcohol-dependent individuals. Nature of the data set: Randomized, double-blind, placebo-controlled trial for treating alcohol dependence: safety. In kind it is in vivo, human. To be noted: N-acetylcysteine up to 3600 mg/day, 8-week treatment. How it is done:
(§1) Alcohol-dependent individuals were recruited for participation in a randomized, double-blind, placebo-controlled trial for treating alcohol dependence. To evaluate the safety and efficacy of N-acetylcysteine, 2 groups (N-acetylcysteine 3600 mg/day and placebo) were compared. The total study duration was 9 weeks which included a 1-week screening period and an 8-week randomized study drug treatment period. Subjects were randomized to one of two groups (Table 1) and were evaluated weekly.
(§2) Of 46 subjects, 44 subjects who took at least one study medication were included in analysis. Data analyses were conducted on an intention-to-treat sample using the linear mixed effects model introduced by Laird and Ware (Laird, N. M. & J. H. Ware. 1982. “Random-Effects Models for Longitudinal Data.” Biometrics 38:963-974). Outcome variables were measured over nine consecutive weeks. The covariates were Alcoholics Anonymous attendance and baseline alcohol craving. All the P-values reported are 2-tailed. Significance level was set at p<0.05.

The test system of data set [2] is alcohol-dependent individuals. Nature of the data set: Quality of Life Enjoyment and Satisfaction Questionnaire (Q-LES-Q) during the trial. It is filed as in vivo, human. Details: key to Q-LES-Q: 16-item Q-LES-Q, 5-point scale; higher = better health status. As for the experimental part: as §1, §2
The effect of N-acetylcysteine on quality of life was measured weekly during the trial described in Example 1. The quality of life was measured by the Quality of Life Enjoyment and Satisfaction Questionnaire (Q-LES-Q).
The short form of the Q-LES-Q is a 16-item self-rated scale designed to assess quality of life, differences in the degree of enjoyment and satisfaction among groups of subjects, as well as changes over time in a single subject (Endicott J., et al., Quality of Life Enjoyment and Satisfaction Questionnaire: a new measure, Psychopharmacol. Bull., 1993, 29(2), 321-326). It is a 5-point scale, with higher scores indicating better health status. The Q-LES-Q SF has been used extensively in drug treatment trials in psychiatry and addictions and has shown good reliability and validity (Endicott J., et al., Pediatric Quality of Life Enjoyment and Satisfaction Questionnaire (PQ-LES-Q): reliability and validity. J. Am. Acad. Child Adolesc. Psychiatry, 2006, 45(4), 401-7). It assesses the following areas: physical health, mood, work, household activities, social relationships, family relationships, leisure time activities, ability to function in daily life, sexual drive, interest and/or performance, economic status, living/housing situation, ability to get around physically, ability to do work or hobbies, and overall sense of well being.

For data set [3], the system named is alcohol-dependent individuals. The data set can be described thus: Alcohol craving by Penn Alcohol Craving Scale (PACS) during the trial. It is filed as in vivo, human. How it is done:
as §1, §2
During the trial described in Example 1, alcohol craving was measured weekly by the Penn Alcohol Craving Scale (PACS)(Flannery B. A., et al., Psychometric properties of the Penn Alcohol Craving Scale. Alcohol, Clin. Exp. Res. 1999, 23(8), 1289-95). The PACS is a 5-item self-rated scale designed to assess alcohol craving severity (frequency, intensity, duration, resistance, and overall craving) during the preceding 1 week. Each item has a score range of 0-6 (maximum total craving score=30).

Data set [4] has as its system alcohol-dependent individuals. The data set can be described thus: Alcohol craving by Obsessive Compulsive Drinking Scale (OCDS) during the trial. It is filed as in vivo, human. Also noted: key to OCDS: OCDS total score, 14 items scored 0-4, max 56. How it is done: as §1, §2
Alcohol craving was also measured weekly by the Obsessive Compulsive Drinking Scale (OCDS) (Anton R. F., et al., The obsessive compulsive drinking scale: A new method of assessing outcome in alcoholism treatment studies. Arch. Gen. Psychiatry. 1996, 53(3), 225-231; Anton R. F., et al., The Obsessive Compulsive Drinking Scale: a self-rated instrument for the quantification of thoughts about alcohol and drinking behavior, Alcohol Clin. Exp. Res., 1995, 19(1), 92-99). The OCDS is a 14-item self-rated reliable scale designed to assess obsessive and compulsive aspects of alcoholism. Each item has a score range of 0-4 (maximum total score=56). Studies of factor analysis have reported that the OCDS loads to three or four factors (OCDS: P<0.05) (Roberts. J. S., et al., Factor structure and predictive validity of the Obsessive Compulsive Drinking Scale, Alcohol Clin. Exp. Res., 1999, 23(9), 1484-1491; Bohn, M. J., et al., Psychometric properties and validity of the obsessive-compulsive drinking scale, Alcohol Clin. Exp. Res., 1996, 20(5), 817-23; Kranzler, H. R., et al., Validity of the Obsessive Compulsive Drinking Scale (OCDS): does craving predict drinking behavior?, Alcohol Clin. Exp. Res. 1999, 23(1), 108-14).

Data set [5] in a line: Liver function tests (plasma AST, ALT, GGT) during the trial. Also noted: AST / ALT / GGT: unit not given here. In kind it is in vivo, human. To be noted: for ALT / AST / GGT: plasma. How it is done:
as §1
The effect of N-acetylcysteine on liver functions was measured during the trial described in Example 1. Liver functions were assessed by measuring changes in plasma aspartate aminotransferase (AST), alanine aminotransferase (ALT) and γ-glutamyl transferase (GGT) levels three times during the study (week 0, week 5 and week 9).

Data set [6] has as its system patients with alcohol dependence. Nature of the data set: Case reports: alcohol consumption and alcohol-related symptoms. It is filed as in vivo, human. Details: AST / ALT: unit not given here.
Data set [7] can be described thus: Case reports: food cravings and compulsive overeating. In kind it is in vivo, human.
The nature of data set [8]: Case report: sexual cravings and hypersexual behaviors. In kind it is in vivo, human. The conditions noted are these: for hypersexual symptoms: naltrexone and topiramate before N-acetylcysteine. An excerpt:
They had sexual arousal even at age five to six years old. They started to masturbate several years later. Pretty soon masturbation became compulsive daily and multiple times a day. By then they had more access to pornography and internet. They would spend hours and hours on it. Their personal life was devastated. They had been in 12 step program called “Sex Addicts Anonymous” for the past 10 years in one of the largest cities in the US. Problem would repeatedly haunt them. Although they were given various antidepressants by doctors their condition had never stopped. They were treated with naltrexone and topiramate. […] Their hypersexual cravings and symptoms were gone. Currently, they are happily married and doing well at work. They are no longer taking naltrexone or topiramate. They are taking N-acetylcysteine only on an as needed basis. We have found same principles in voyeurism, exhibitionism and other sexual deviations. These patients often end up in jail yet they can't help themselves because of uncontrollable cravings.

Data set [9] is described as follows: Case report: shopping cravings and compulsive shopping. It is filed as in vivo, human. The conditions noted are these: person, 2400-3600 mg/day, within two weeks. How it is done: They have had compulsive shopping behaviors for the past 20 years. They have been under severe financial stress because of their spending habits and unemployment. They had other addictive behaviors such as drinking, hoarding and overeating. Earlier, they were married, had stable job but lost everything. Various medicines such as antipsychotics and antidepressants were ineffective. On the third visit they were given N-acetylcysteine and was advised to take 2400-3600 mg/day.

The test system of data set [10] is cysteine/glutamate exchange. To be noted: preclinical studies; cited from earlier work.
For data set [11] the following is noted: in vivo; cited from earlier work.
The conditions of data set [12]: in vivo; cited from earlier work. The source holds these as a separate data set.
In data set [13] the test system is cocaine-dependent patients. To be noted: cited from earlier work.

Bounds are passed on as bounds.

Take `CC(=O)N[C@@H](CS)C(=O)O` [N-acetylcysteine]: the serious adverse effects result in [1] is reported as “no serious adverse effects”. Besides, in [1], the tolerability result is recorded as “well tolerated”. Also, the Q-LES-Q in [2] (Week 1) was 50.4000; in data set [2] (Week 2), 51.6390; in data set [2] (Week 3) it was 53.8772; in data set [2] (Week 4), 54.1789; in data set [2] (Week 5), 57.7852; in [2] (Week 6), 57.5529. In addition, the Q-LES-Q in data set [2] (Week 7) amounted to 58.1422; in data set [2] (Week 8), 57.8000; in data set [2] (Week 9), 58.7244. The “quality of life by Q-LES-Q compared to placebo” value in data set [2] (during the trial, p=0.017) is recorded as “improved the quality of life”. For the same compound, the PACS in [3] (Week 1) turned out to be 18.1429; in [3] (Week 2), 15.1500; in data set [3] (Week 3) it was 14.0000; in [3] (Week 4), 11.9474; in data set [3] (Week 5), 11.7778; in [3] (Week 6) it was 9.3529. The PACS in data set [3] (Week 7) is given as 8.3333; in data set [3] (Week 8), 7.2667; in data set [3] (Week 9) it was 7.2000. Also, in [3] (during the trial, p=0.041), the “alcohol craving by PACS compared to placebo” value is given as “decreased alcohol craving”. The OCDS in [4] (Week 1) was 29.0000; in data set [4] (Week 2), 24.9000; in [4] (Week 3), 21.6316; in [4] (Week 4), 20.3684; in data set [4] (Week 5), 18.5556; in data set [4] (Week 6), 16.0000. In addition, the OCDS is 13.5333 in [4] (Week 7), 13.4667 in data set [4] (Week 8) and 13.8000 in data set [4] (Week 9). In [4] (during the trial, p=0.042), the “alcohol craving by OCDS compared to placebo” value is listed as “decreased alcohol craving”. Also, in [5] (8-week trial), the “liver functions (AST, ALT, GGT liver function tests)” value was “improved liver functions”. Besides, the ALT in data set [5] (Week 0) is given as 36.67; in [5] (Week 5) it was 33.06; in [5] (Week 9), 29.13; in [6] (Case 2, from 51, in two months while taking N-acetylcysteine), 18. For the same compound, the AST in data set [5] (Week 0) was 40.89; in data set [5] (Week 5) it was 30.28; in data set [5] (Week 9) it was 26.13; in [6] (Case 2, from 41, in two months while taking N-acetylcysteine) it was 20. In addition, the GGT was 193.00 in [5] (Week 0); 139.06 in data set [5] (Week 5); 92.93 in [5] (Week 9); 327 in data set [6] (Case 2, from 1420, in two months while taking N-acetylcysteine). In addition, the alcohol use entry is “able to stop drinking alcohol” in data set [6] (Case 1, after taking 900 mg); “able to abstain from alcohol” in data set [6] (Case 2, soon after start); “able to stop drinking alcohol completely” in [6] (Case 3, at 3600 mg/day); 6 drinks/day in data set [6] (Case 4, 900 mg, before 12-24 beers/day); “able to abstain from alcohol” in data set [6] (Case 4, several weeks later, 2400-3600 mg). Further, the alcohol craving entry in data set [6] (Case 1, on 3600 mg) is recorded as “substantial reduction in their craving”. For the same compound, the drinking consumption entry is “reduced their drinking significantly” in [6] (Case 5, 3600 mg, before 6-12 drinks of vodka per day) and “about the same” in data set [6] (Case 5, at 900-2700 mg/day). Besides, the “alcohol consumption and other alcohol-related symptoms” value in [6] (numerous test subjects) was “reduced alcohol consumption and other alcohol-related symptoms”. Moreover, the weight in [7] (Case 1, from 239 lbs, in 5 weeks, 2700-3600 mg per day) is reported as 225 lbs; in data set [7] (Case 1, two months later, 3600 mg) it was 224 lbs; in data set [7] (Case 2, from 295 lbs, in one month) it was 286 lbs. Besides, the “time for food craving to subside after taking” value in data set [7] (Case 3, 1200 mg) was at most 15 min. In data set [7] (Case 3, start 220 lbs, two weeks, 1200 mg three times a day), this compound displayed a weight lost of 6 lbs. The “food cravings and compulsive overeating” value in data set [7] (numerous test subjects) is “reduced food cravings and compulsive overeating”. Also, the “effect in voyeurism, exhibitionism and other sexual deviations” value in data set [8] (patients with uncontrollable cravings) is given as “works dramatically”. The “hypersexual cravings and symptoms” value in data set [8] (person, 2400-3600 mg/day added to naltrexone and topiramate) is reported as “ameliorated dramatically”. The “shopping cravings and behaviors” value in [9] is reported as “stopped dramatically”. In addition, in data set [10], the cocaine-primed reinstatement entry was “inhibited”. In data set [10], the heroin-induced reinstatement result is recorded as “inhibited”. For the same compound, the “treatment of pathological gambling” value in data set [11] is “showed the efficacy”. Further, the half-life entry in [12] is listed as “short half-life”. Also, the “cocaine use and craving” value in data set [13] (double-blind placebo-controlled crossover trial) was “reduced cocaine use and craving”. Moreover, in data set [13] (human, in vivo), the safety and tolerability entry was “safe and well tolerated”. In addition, the cocaine use result in [13] (open-label clinical study of cocaine-dependent patients) is given as “significantly reduced cocaine use”.
On to `O=C1CC[C@@]2(O)[C@H]3Cc4ccc(O)c5c4[C@@]2(CCN3CC2CC2)[C@H]1O5` [naltrexone], for which the hypersexual symptoms result in data set [8] (person) is “only partially”.
Same read-out and setting: the entry for `CC1(C)O[C@@H]2[C@@H](CO[C@@]3(COS(N)(=O)=O)OC(C)(C)O[C@@H]23)O1` [topiramate] is “only partially”.

Source of the values: US20120270860A1, “METHODS FOR TREATING OR PREVENTING ALCOHOL-RELATED DISORDERS OR CRAVING-RELATED DISORDERS” (priority 2011, published 2012).
